Test results published in patent publication US10682371B2, “Small molecule conjugates specifically activated in tumor microenvironment for targeting and use thereof” (priority 2014, dated 2020).
Where two headings read alike, the source gives them in different places.

Assays:
[1] = tested on: Human breast cancer MDA-MB435 tumor tissue homogenate; format: biochemical
Description: (§1) At 37 °C, sample compounds were added into 100 μg acidized tumor tissue homogenates (pH6.0) in a concentration of 1 mg/ml.
(§2) At 37 °C, sample compounds were added into 100 μg acidized human breast cancer (MDA-MB435) tumor tissue homogenates (pH6.0) in a concentration of 1 mg/ml.
(§3) […], sample compounds were added into 100 μg acidized tumor tissue homogenates (pH6.0) in a concentration of 1 mg/ml.
as §2
(§4) At 37 °C, sample compounds were added into 100 μg acidized tumor tissue homogenates in a concentration of 1 mg/ml.
(§5) In the experiments, at 37 °C, compounds were added into proteases in 100 μg acidized tumor tissue homogenates in a concentration of 1 mg/ml. […] Meanwhile certain compounds produced in the screening were compared and their activation efficiency in same tissue was analyzed.
(§6) At 37° C., compounds were added into proteases in 100 μg acidized tumor tissue homogenates in a concentration of 1 mg/ml.

[2] = tested on: Human chronic leukemia K562 tumor tissue homogenate; format: biochemical; conditions: Human chronic leukemia K562, 1 mg/ml
Description: as §1, §3, §4, §5, §6

[3] = tested on: Human colon cancer HT-29 tumor tissue homogenate; format: biochemical; conditions: Human colon cancer HT-29, 1 mg/ml
Description: as §1, §3, §4, §5, §6

[4] = tested on: Human liver cancer Hepg2 tumor tissue homogenate; format: biochemical; conditions: Human liver cancer Hepg2, 1 mg/ml
Description: as §1, §3, §4, §5, §6

[5] = tested on: Human non-small cell lung cancer A549 tumor tissue homogenate; format: biochemical; conditions: Human non-small cell lung cancer A549, 1 mg/ml
Description: as §1, §3, §4, §5, §6

[6] = tested on: Human ovarian cancer SK-OV-3 tumor tissue homogenate; format: biochemical; conditions: Human ovarian cancer SK-OV-3, 1 mg/ml
Description: as §1, §3, §4, §5, §6

[7] = tested on: Human pancreatic cancer Panc-1 tumor tissue homogenate; format: biochemical; conditions: Human pancreatic cancer Panc-1, 1 mg/ml
Description: as §1, §3, §4, §5, §6

[8] = tested on: Human prostate cancer PC-3 tumor tissue homogenate; format: biochemical; conditions: Human prostate cancer PC-3, 1 mg/ml
Description: as §1, §3, §4, §5, §6

[9] = tested on: Human renal cancer OS-RC-2 tumor tissue homogenate; format: biochemical; conditions: Human renal cancer OS-RC-2, 1 mg/ml
Description: as §1, §3, §4, §5, §6

D121 lung tumor cells = format: in vivo, C57 mice; conditions: for Size of tumor (mm^3) Day 18 / inhibitory rate on tumor % Day 18: immunized C57 mice; for Treatment effects on C57 mice, in words: compared to the control group and the other treatment groups; for Effect together with PDL1-antibody in promoting immunization and treatment, in words: combination with PDL1-antibody
In short: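 Endpoint is tumor inhibition rate from tumor size (mm^3) after weekly drug treatment for 4 weeks, begun once s.c. tumors from 10^6 live D121 cells reached 0.3-0.4 cm. Before challenge, C57 mice received three i.p. doses of 5×10^5 irradiated D121 cells, two weeks apart, or saline.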

tumor CD8+ T cells = format: in vivo, C57 mice; conditions: CD8 positive cells in CD45 positive cells of tumor, flow cytometry
In short: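 Tumour tissue homogenised and single cells filtered, washed, then stained 1 h at ambient temperature with CD45-PE and CD8-FITC antibodies. After washes in PBS with 1% FBS, flow cytometry gave the fraction of CD8⁺ cells among CD45⁺ leucocytes.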

[10] = Human breast cancer MDA-MB435, 1 mg/ml, acidized homogenate pH6.0, Paclitaxel release by HPLC
[11] = acidized homogenate pH6.0, Paclitaxel release by HPLC
[12] = Table 27, D121 lung tumor, drugs weekly for 4 weeks
[13] = Table 27, immunized C57 mice, D121
[14] = Table 34, acidized homogenate, Docetaxel release by HPLC
[15] = Table 39, D121, drugs 13.2 μmol/kg, PDL1-antibody 5 μg/kg, weekly for 4 weeks
[16] = Table 45, acidized homogenate, Docetaxel release by HPLC
[17] = Table 49, D121, drugs 13.2 μmol/kg, PDL1 antibody 5 μg/kg, weekly for 4 weeks

Compound | Activation ratio (%) in homogenates from different tumor tissues [1, 10] | Activation ratio (%) in homogenates from different tumor tissues [2, 11] | Activation ratio (%) in homogenates from different tumor tissues [3, 11] | Activation ratio (%) in homogenates from different tumor tissues [4, 11] | Activation ratio (%) in homogenates from different tumor tissues [5, 11] | Activation ratio (%) in homogenates from different tumor tissues [6, 11] | Activation ratio (%) in homogenates from different tumor tissues [7, 11] | Activation ratio (%) in homogenates from different tumor tissues [8, 11] | Activation ratio (%) in homogenates from different tumor tissues [9, 11] | Size of tumor (mm^3) Day 18 (D121 lung tumor cells; [12]) | inhibitory rate on tumor % Day 18 (D121 lung tumor cells; [12]) | Treatment effects on C57 mice, in words (D121 lung tumor cells) | CD8: CD45 (%) (tumor CD8+ T cells; [13]) | Effect together with PDL1-antibody in promoting immunization and treatment, in words (D121 lung tumor cells) | other results
COCCOCCOCCOCCOCCOCC(=O)NCCCC[C@H](NC(=O)COCCOCCOCCOCCOCCOC)C(=O)N[C@H](C)C(=O)N[C@H](C)C(=O)N[C@H](CC(N)=O)C(=O)Nc1ccc(COC(=O)OC(C(=O)OC2C[C@@]3(O)[C@@H](OC(=O)c4ccccc4)[C@H]4[C@](C)(C(=O)[C@H](OC(C)=O)C(=C2C)C3(C)C)[C@@H](O)CC2OC[C@]24OC(C)=O)[C@@H](NC(=O)c2ccccc2)c2ccccc2)cc1 (stereo partly shown) [Compound A2] | 94.4% | 76.3% | 92.9% | 87.6% | 92.4% | 88.6% | 93.8% | 101.4% | 94.5% | 375.727 ± 247.3 mm^3 | 77.74% | greatly improved | 19.4% |  | 
COCCOCCOCCOCCOCCOCCOCCOCCOCCOCCOCCOCC(=O)NCCCC[C@H](NC(=O)COCCOCCOCCOCCOCCOCCOCCOCCOCCOCCOCCOC)C(=O)N[C@H](C)C(=O)N[C@H](C)C(=O)N[C@H](CC(N)=O)C(=O)Nc1ccc(COC(=O)OC(C(=O)OC2C[C@@]3(O)[C@@H](OC(=O)c4ccccc4)[C@H]4[C@](C)(C(=O)[C@H](OC(C)=O)C(=C2C)C3(C)C)[C@@H](O)CC2OC[C@]24OC(C)=O)[C@@H](NC(=O)c2ccccc2)c2ccccc2)cc1 (stereo partly shown) [Compound A3] | 93.4% | 73.2% | 94.6% | 86.5% | 84.4% | 82.8% | 94.5% | 99.3% | 89.4% | 360.393 ± 312.7 mm^3 | 78.65% | greatly improved | 17.3% |  | activation efficiency (%) ([1]; Table 24, acidized human breast cancer (MDA-MB435) tumor tissue homogenates pH6.0, 1 mg/ml, Paclitaxel release by HPLC): 94.5%
COCCOCC(=O)NCCCC[C@H](NC(=O)COCCOC)C(=O)N[C@H](C)C(=O)N[C@H](C)C(=O)N[C@H](CC(N)=O)C(=O)Nc1ccc(COC(=O)OC(C(=O)OC2C[C@@]3(O)[C@@H](OC(=O)c4ccccc4)[C@H]4[C@](C)(C(=O)[C@H](O)C(=C2C)C3(C)C)[C@@H](O)CC2OC[C@]24OC(C)=O)[C@@H](NC(=O)OC(C)(C)C)c2ccccc2)cc1 (stereo partly shown) [Compound B1] |  |  |  |  |  |  |  |  |  |  |  | greatly improved |  | excellent synergistic effect | activation efficiency (%) ([1]; Table 34, Human breast cancer MDA-MB435, 1 mg/ml, acidized homogenate, Docetaxel release by HPLC): 93.5%; activation efficiency (%) [2, 14]: 69.0%; activation efficiency (%) [3, 14]: 83.9%; activation efficiency (%) [4, 14]: 76.3%; activation efficiency (%) [5, 14]: 91.2%; activation efficiency (%) [6, 14]: 93.1%; activation efficiency (%) [7, 14]: 86.9%; activation efficiency (%) [8, 14]: 76.1%; activation efficiency (%) [9, 14]: 90.9%; Size of tumor (mm^3) Day 18 (D121 lung tumor cells; [15]): 271.36 ± 157.56 mm^3; inhibitory rate on tumor % Day 18 (D121 lung tumor cells; [15]): 83.25%; CD8: CD45 (%) (tumor CD8+ T cells; Table 39, drugs 13.2 μmol/kg, PDL1-antibody 5 μg/kg): 18.9%
COCCOCC(=O)N[C@H](C)C(=O)N[C@H](C)C(=O)N[C@H](CC(N)=O)C(=O)Nc1ccc(COC(=O)OC(C(=O)OC2C[C@@]3(O)[C@@H](OC(=O)c4ccccc4)[C@H]4[C@](C)(C(=O)[C@H](O)C(=C2C)C3(C)C)[C@@H](O)CC2OC[C@]24OC(C)=O)[C@@H](NC(=O)OC(C)(C)C)c2ccccc2)cc1 (stereo partly drawn) [Compound D1, 2-(2-methoxyethoxy) acetyl-L-Ala-L-Ala-L-Asn-4-amino benzyl-Docetaxel] |  |  |  |  |  |  |  |  |  |  |  | greatly improved |  | excellent synergistic effect | Activation ratio (%) in homogenates from different tumor tissues ([1]; Table 45, Human breast cancer MDA-MB435, 1 mg/ml, acidized homogenate, Docetaxel release by HPLC): 83.07%; Activation ratio (%) in homogenates from different tumor tissues [2, 16]: 68.23%; Activation ratio (%) in homogenates from different tumor tissues [3, 16]: 71.46%; Activation ratio (%) in homogenates from different tumor tissues [4, 16]: 85.77%; Activation ratio (%) in homogenates from different tumor tissues [5, 16]: 77.76%; Activation ratio (%) in homogenates from different tumor tissues [6, 16]: 79.56%; Activation ratio (%) in homogenates from different tumor tissues [7, 16]: 85.32%; Activation ratio (%) in homogenates from different tumor tissues [8, 16]: 87.57%; Activation ratio (%) in homogenates from different tumor tissues [9, 16]: 77.76%; Size of tumor (mm^3) Day 18 (D121 lung tumor cells; [17]): 324.45 mm^3; inhibitory rate on tumor % Day 18 (D121 lung tumor cells; [17]): 77.2%; CD8: CD45 (%) (tumor CD8+ T cells; Table 49, drugs 13.2 μmol/kg, PDL1 antibody 5 μg/kg): 18.5%
